# Read-outs that look alike come from different tables or passages of the source.
# Columns and labels:
# [1] = system: Mycobacterium avium subsp. paratuberculosis CIT03; assay: In vitro antimycobacterial evaluation (MIC/IC90, alamarBlue); format: cell-based; details: for MIC: Mycobacterium avium
# Experimental: The MIC/IC90 value is routinely and widely used in bacterial assays and is a standard detection limit according to the Clinical and Laboratory Standards Institute.
# A well-characterized clinical isolate of Mycobacterium avium subsp. paratuberculosis (CIT03) was grown in Middlebrook broth (MB), supplemented with Oleic-Albumin-Dextrose-Catalase supplement (OADC, Becton, Dickinson and Comp., Franklin Lakes, NJ, USA) and mycobactin J (2 µg/mL). Identification of this isolate was performed using biochemical and molecular protocols. At log phase growth, a culture sample (10 mL) was centrifuged at 15,000 rpm/20 min using a bench top centrifuge (Model CR 4-12, Jouan Inc., Winchester, VA, USA). Following removal of the supernatant, the pellet was washed in fresh Middlebrook 7H9GC broth and re-suspended in fresh supplemented MB (10 mL). The turbidity was adjusted to match McFarland standard No. 1 (3 × 10^8 cfu) with MB broth. A further 1:20 dilution of the culture was then performed in MB broth. The antimicrobial susceptibility of the mycobacterial species was investigated in a 96-well plate format. In these experiments, sterile deionized water (300 µL) was added to all outer-perimeter wells of the plates to minimize evaporation of the medium in the test wells during incubation. Each evaluated compound (100 µL) was incubated with the mycobacterial species (100 µL). Dilutions of each compound were prepared in duplicate. For all synthesized compounds, final concentrations ranged from 1,000 µg/mL to 8 µg/mL. All compounds were prepared in DMSO and subsequent dilutions were made in supplemented MB. The plates were sealed with parafilm and incubated at 37 °C for 11 days.
# Following incubation, a 10% addition of alamarBlue (AbD Serotec, Kidlington, UK) was mixed into each well and readings at 570 nm and 600 nm were taken, initially for background subtraction and subsequently after 24 h re-incubation. […] For non-interfering compounds, a blue colour in the well was interpreted as an absence of growth and a pink colour was scored as growth. Furthermore percent reduction of alamarBlue was calculated to generate quantitative data on cell viability during exposure to antimycobacterial compounds over a period of 5 days. The formula used to determine percent reduction of alamarBlue has been standardized for colorimetric analysis by Abd Serotec.
# The MIC value is routinely and widely used in bacterial assays and is a standard detection limit according to the Clinical and Laboratory Standards Institute.
# [2] = system: photosynthetic electron transport (PET) in isolated spinach chloroplasts; assay: Inhibition of photosynthetic electron transport (PET) in isolated spinach chloroplasts; format: biochemical, Spinacia oleracea L.; details: DCPIP photoreduction
# Experimental: The PET-inhibiting activity was expressed by IC50 value, i.e., compound concentration in mol/L causing 50% inhibition of PET.
# Chloroplasts were prepared from spinach (Spinacia oleracea L.) according to Masarovicova and Kralova. The inhibition of photosynthetic electron transport (PET) in isolated spinach chloroplasts was determined spectrophotometrically (Genesys 6, Thermo Scientific, USA), using an artificial electron acceptor 2,6-dichlorophenol-indophenol (DCIPP) according to Kralova et al., and the rate of photosynthetic electron transport was monitored as a photoreduction of DCPIP. The measurements were carried out in phosphate buffer (0.02 mol/L, pH 7.2) containing sucrose (0.4 mol/L), MgCl2 (0.005 mol/L) and NaCl (0.015 mol/L). The chlorophyll content was 30 mg/L in these experiments and the samples were irradiated (~100 W/m^2 with 10 cm distance) with a halogen lamp (250 W) using a 4 cm water filter to prevent warming of the samples (suspension temperature 22 °C). The studied compounds were dissolved in DMSO due to their limited water solubility. […] The inhibitory efficiency of the studied compounds was expressed by IC50 values, i.e., by molar concentration of the compounds causing 50% decrease in the oxygen evolution rate relative to the untreated control.
# [3] = M. avium subsp. paratuberculosis, comparison of MICs
structure (smiles),measurement,setting,value
"Cc1ccc(NC(=O)c2cccc3ccccc23)cc1 [Compound 3c, N-(4-Methylphenyl)naphthalene-1-carboxamide]",antimycobacterial activity relative to ciprofloxacin,[1]; [3],three-fold higher
same,antimycobacterial activity relative to rifampicin,[1]; [3],two-fold higher
same,MIC,"[1]; 264 h, clinical isolate CIT03, 11 days at 37 °C, alamarBlue, MIC = 90% or greater reduction of growth, read-out: MAP MIC/IC90",57 µM
same,MIC,"[1]; clinical isolate CIT03, read-out: MIC",15 µg/mL
same,MAP MIC/IC90,"[1]; clinical isolate CIT03, 11 days at 37 °C, alamarBlue, MIC = 90% or greater reduction of growth",57 µmol/L
same,IC50,[2],381 µM
